pEC50: −log10 of the molar value. Inconclusive results are not listed. Activity calls are given as the source filed them. How the calls were made is not given here.
system: not listed separately; assay: compounds raising TAG storage in Chlamydomonas – qHTS, Chlamydomonas reinhardtii, dose response (AID 1159536); settings: Chlamydomonas reinhardtii, Nile Red lipid fluorescence, 72 h; at 30 µM (top of the series)

Row | SMILES | fold change vs untreated, higher = more lipid
1 | O=C(Nc1ccccc1C(=O)NCc1ccccc1)c1ccc([N+](=O)[O-])cc1 | 2.49 (inactive)
2 | Cc1ccc(OCCCCN2CCCC2)c(C)c1 | 6.28
3 | Cc1ccc(Cn2cnc3c(cnn3-c3ccccc3)c2=O)c(C)c1 | 3 (inactive)
4 | CCC1CCCCN1C(=O)c1ccc(Cl)cc1[N+](=O)[O-] (stereo not drawn) | 1.87 (inactive)
5 | Cc1ccc(N2CCN(CCc3ccccc3)CC2)cc1 | 8.09
6 | Fc1ccc(N2CCN(CCc3ccccc3)CC2)cc1 | 9.42
7 | O=C(NC1CCN(Cc2ccccc2)CC1)c1ccc(Cl)cc1Cl | 12.2
8 | CC(C)(C)c1ccc(OCCCCN2CCOCC2)cc1 | 3.88
9 | COc1ccc(S(=O)(=O)N(CC(=O)NC(C)C)c2cc(C)cc(C)c2)cc1OC | 1.07 (inactive)
10 | Cc1cc(Br)ccc1OCC(=O)NCc1ccc2c(c1)OCO2 | 1.4 (inactive)
11 | C=CCNC(=O)C(C)N(c1ccc(OCC)cc1)S(C)(=O)=O (stereo not drawn) | 1.69 (inactive)
12 | Cc1ccc(CN2CCC(C(=O)NCc3ccccc3Cl)CC2)cc1 | 15.2
13 | O=C(O)C1CCN(C(=O)c2ccc(F)cc2)CC1 | 1.24 (inactive)
14 | Cc1c(N/C=C/C(=O)c2cccs2)c(=O)n(-c2ccccc2)n1C | 1.42 (inactive)
15 | COc1cccc(CN2CCN(C(=O)c3cc(OC)c(OC)c(OC)c3)CC2)c1OC | 1.75 (inactive)
16 | COc1cc(-c2ccc(NC(=O)c3ccco3)c(OC)c2)ccc1NC(=O)c1ccco1 | 1.4 (inactive)
17 | COc1ccccc1Cn1c(C(C)O)nc2ccccc21 (stereo not drawn) | 0.95 (inactive)
18 | Cc1sc(NC(=O)c2cccs2)c(C(=O)O)c1C | 1.38 (inactive)
19 | Cc1c(C(=O)Nc2ccccc2C(=O)NCc2ccccc2)cccc1[N+](=O)[O-] | 2.77 (inactive)
20 | CC(=O)Nc1ccc(OCC(=O)Nc2cc(Cl)cc(Cl)c2)cc1 | 2.48 (inactive)
21 | Cc1cc(Cl)c(OCCn2ccnc2)c(Br)c1 | 5.38
22 | CCN1CCN(C2CCC(C(C)(C)C)CC2)CC1 (stereo not drawn) | 2.66 (inactive)
23 | COc1cc(NC(=O)C(Cl)Cl)c(OC)cc1Cl | 1.42 (inactive)

system: Chlamydomonas reinhardtii, Nile Red lipid fluorescence, 72 h; assay: as above; settings: not given

Row | SMILES | pEC50 | EC50
24 | COc1ccccc1N1CCN(C2CCN(CC3CC4C=CC3C4)CC2)CC1 (stereo not drawn) | 4.98 | –
25 | CC1(C)Oc2ccc(NC(=O)c3ccc(C(=O)c4ccccc4)cc3)cc2O1 | – | 8.94 µM (inactive)
26 | Clc1ccc(OCCCN2CCOCC2)c(Br)c1 | 4.98 | –
27 | Clc1ccc(N2CCN(Cc3ccc4c(c3)OCO4)CC2)cc1 | 5.88 | –
28 | O=C1CC(N2CCN(Cc3ccc4c(c3)OCO4)CC2)C(=O)N1CCc1ccccc1 (stereo not drawn) | 5.58 | –
29 | O=C(Nc1ccc([N+](=O)[O-])cc1)c1ccccc1Cl | 5.29 | –
30 | CN1CCCN(CC2=CC[C@H]3C[C@@H]2C3(C)C)CC1 | 4.99 | –
31 | CN(CCC#N)C12CC3CC(CC(C3)C1)C2 | 5.06 | –
32 | Cc1ccc(OCC(O)CN(C)C2CCCCC2)cc1C (stereo not drawn) | 5.35 | –
33 | Clc1cccc(N2CCN(Cc3ccsc3)CC2)c1 | 5.40 | –
34 | CCC(C)c1ccccc1OCCOCCN1CCOCC1 (stereo not drawn) | 4.88 | –
35 | Clc1cc(Br)ccc1OCCCN1CCOCC1 | 5.35 | –
36 | Oc1ccc(CN2CCN(Cc3ccccc3)CC2)cc1 | 4.95 | –
37 | O=[N+]([O-])c1ccc(CN2CCN(C3CCCC3)CC2)cc1 | 7.17 | –
38 | CN1CCCN(Cc2ccc([N+](=O)[O-])o2)CC1 | – | 15 µM (inactive)
39 | CCN(CC)CC#Cc1ccc(C#CCN(CC)CC)cc1 | 5.38 | –
40 | Clc1ccc(OCCCCN2CCCC2)c(Br)c1 | 5.59 | –
41 | CCC(C)c1ccccc1OCCCN1CCOCC1 (stereo not drawn) | 5.43 | –
42 | C/C(=C\c1ccccc1)CN1CCN(C)CC1 | 6.00 | –
43 | Cc1c(C(=O)Nc2ccc(F)c(F)c2)cccc1[N+](=O)[O-] | – | 17.5 µM (inactive)
44 | CC(C)C(NS(=O)(=O)c1cccs1)C(C)C | – | 21.6 µM (inactive)
45 | Clc1ccc(OCCOCCN2CCCC2)c(Br)c1 | 5.59 | –
46 | Cc1ccc(OCCCn2ccnc2)c(Br)c1 | 5.90 | –
47 | CCN(Cc1ccccc1)C(=O)C1CCN(CCCc2ccccc2)CC1 | 5.89 | –

Row | SMILES | pEC50 | EC50
48 | NC(=O)c1cc(-c2ccccc2)sc1NC(=O)c1ccc(OC(F)F)cc1 | 6.81 | –
49 | Cc1cc(Cl)cc(C)c1OCCn1ccnc1 | 5.89 | –
50 | O=C(CN1CCCCC1)NCC12CC3CC(CC(C3)C1)C2 | 5.03 | –
51 | Cc1ccc(CN2CCC(C(=O)N3CCN(c4ccccc4F)CC3)CC2)o1 | – | 7.9 µM (inactive)
52 | CN1CCC(N(C)Cc2cc(Cl)ccc2O)CC1 | 5.59 | –
53 | COc1ccc(CCN(C)Cc2ccc([N+](=O)[O-])cc2)cc1OC | 5.00 | –
54 | CCOc1ccccc1C(=O)NC1CC1 | – | 26.5 µM (inactive)
55 | C(#CCN1CCCCC1)COc1ccccc1 | 5.31 | –
56 | Cc1ccc2nc(SCc3ccccc3)c(C=O)c(=O)n2c1 | 5.39 | –
57 | COc1cc(CN2CCN(Cc3ccccc3)CC2)cc(OC)c1 | 5.05 | –
58 | Cc1ccc(CN2CCCC(CO)C2)cc1 (stereo not drawn) | 5.00 | –
59 | O=[N+]([O-])c1ccc(CN2CCN(Cc3ccccc3)CC2)cc1 | 5.20 | –
60 | CC(C)(Oc1ccc(Cl)cc1)C(=O)N1CCN(c2ccc(F)cc2)CC1 | – | 2.13 µM (inactive)
61 | COc1ccc(CNC2CCCC(C)C2)cc1 (stereo not drawn) | 5.15 | –
62 | COc1cccc(CN2CCN(Cc3ccc(F)cc3)CC2)c1OC | 6.19 | –
63 | Clc1cc(Br)ccc1OCCCCN1CCOCC1 | 5.88 | –
64 | Nc1ccc(F)cc1C(=O)c1ccccc1 | 5.15 | –
65 | COc1ccccc1N1CCN(C2CCN(Cc3cccc(F)c3)CC2)CC1 | 4.98 | –
66 | CN(CCc1ccccc1)C1CCN(Cc2ccccc2)CC1 | 7.66 | –
67 | O=S(=O)(c1ccc(F)cc1)N1CCN(C2CCCCC2)CC1 | 4.99 | –
68 | COc1ccccc1N1CCN(Cc2ccc(Cl)cc2)CC1 | 5.79 | –
69 | C=C(C)CN(CC)C(=O)C1CCN(Cc2ccc(Cl)cc2)CC1 | 6.19 | –
70 | COc1cc(C)c(CN2CCCN(C)CC2)cc1C | 4.99 | –
71 | Oc1ccccc1CNCCC12CC3CC(CC(C3)C1)C2 | – | 2.49 µM (inactive)

Row | SMILES | pEC50 | EC50
72 | Cc1ccccc1OCCCCN1CCOCC1 | 5.01 | –
73 | C/C(=C\c1ccccc1)CN(C)CCN(C)C | 5.58 | –
74 | Nc1ccc(C(=O)Nc2ccc(Cl)cc2Cl)cc1 | 5.83 | –
75 | Cc1cc(C(C)(C)C)ccc1OCCOCCN1CCN(C)CC1 | – | 0.566 µM (inactive)
76 | CCOc1ccc(CN2CCN(c3ccc([N+](=O)[O-])cc3)CC2)cc1 | 5.58 | –
77 | COc1ccc(OC)c(CN2CCN(Cc3ccc([N+](=O)[O-])cc3)CC2)c1 | 5.87 | –
78 | CCC(C)c1ccccc1OCCCCN1CCCC1 (stereo not drawn) | 5.57 | –
79 | Cc1ccsc1/C=C(\C#N)c1nc(-c2ccc([N+](=O)[O-])cc2)cs1 | – | 14.9 µM (inactive)
80 | O=[N+]([O-])c1ccc(C(O)CN2CCN(Cc3ccccc3)CC2)cc1 (stereo not drawn) | 4.90 | –
81 | COc1ccc(OC)c(CNCCc2ccc([N+](=O)[O-])cc2)c1 | 6.19 | –
82 | O=[N+]([O-])c1ccc(OCCCCN2CCOCC2)cc1 | 4.85 | –
83 | c1coc(CN2CCN(C3CCCCCC3)CC2)c1 | 5.32 | –
84 | COc1ccccc1N1CCN(C2CCN(Cc3cccc(Cl)c3)CC2)CC1 | 5.00 | –
85 | CN(c1ccc(C(=O)NC2CCCCCC2)cc1)S(=O)(=O)c1ccccc1 | 5.30 | –
86 | COc1ccc(C(=O)Nc2sc3c(c2C(N)=O)CCC(C)C3)c(OC)c1 (stereo not drawn) | – | 15.8 µM (inactive)
87 | COc1cc2c(cc1OC)CN(Cc1ccc(F)cc1)CC2 | 5.00 | –
88 | Cc1ccccc1N1CCN(Cc2ccc(F)cc2)CC1 | 5.87 | –
89 | CCOc1ccc(CN2CCN(c3ccc(F)cc3)CC2)cc1 | 6.62 | –
90 | CCN(CC)CC#CCOc1ccccc1 | 4.94 | –
91 | COc1ccc(OCCCN2CCCCC2)cc1 | 4.86 | –
92 | CC(C)NC(=O)c1ccccc1NC(=O)c1ccc(Br)cc1 | 6.00 | –
93 | COc1cc(C(=O)Nc2ccc(S(=O)(=O)Nc3ncccn3)cc2)cc(OC)c1OC | – | 30.9 µM (inactive)
94 | C(=C\c1ccccc1)/CN1CCN(CC2CCCCC2)CC1 | 6.19 | –
95 | Cc1c(NC(=O)COc2ccc(Br)cc2)cccc1[N+](=O)[O-] | – | 1.37 µM (inactive)

Row | SMILES | pEC50 | EC50
96 | CC(=O)c1nc2cc([N+](=O)[O-])ccc2n1Cc1ccccc1 | – | 10 µM (inactive)
97 | c1ccc(CN2CCC(N3CCN(C4CC5CCC4C5)CC3)CC2)cc1 (stereo not drawn) | 5.00 | –
98 | Cc1cc(C)c(OCCCCN2CCNCC2)c(C)c1 | 5.58 | –
99 | CN1CCN(Cc2ccc3c(c2)Cc2ccccc2-3)CC1 | 5.00 | –
100 | O=C(O)C1CC=CCC1C(=O)Nc1ccc(F)cc1F (stereo not drawn) | – | 13.2 µM (inactive)
101 | CCC(C)N1CCN(Cc2ccc([N+](=O)[O-])cc2)CC1 (stereo not drawn) | 4.98 | –
102 | Fc1ccc(CN2CCN(c3cccc(Cl)c3)CC2)cc1 | 5.89 | –
103 | CN1CCN(C2C3CC4CC(C3)CC2C4)CC1 (stereo not drawn) | 5.01 | –
104 | O=C(Nc1ccccc1)Nc1ccccc1C(=O)N1CCOCC1 | – | 22.2 µM (inactive)
105 | O=S(=O)(c1ccc(Cl)c(Cl)c1Cl)N1CCN(c2ccc(F)cc2)CC1 | – | 0.0144 µM (inactive)
106 | O=C(Nc1ccc(Br)cc1)c1ccccc1Cl | 5.00 | –
107 | O=C(Nc1ccc([N+](=O)[O-])cc1)c1c(F)c(F)c(F)c(F)c1F | – | 1.36 µM (inactive)
108 | CN1CCC(N(C)Cc2cccc(Oc3ccccc3)c2)CC1 | 5.00 | –
109 | COc1cccc(N2CCN(Cc3ccsc3)CC2)c1 | 5.00 | –
110 | O=C(CN1CCCCC1)Nc1ncc(Cc2ccc(F)cc2)s1 | – | 0.0585 µM (inactive)
111 | Cc1cc(Cl)c(OCCOCCN2CCN(C)CC2)c(Br)c1 | 5.51 | –
112 | COc1ccc(CN2CCN(CC3CC4C=CC3C4)CC2)cc1OC (stereo not drawn) | 5.41 | –
113 | CCC1CCC(N2CCN(CC)CC2)CC1 (stereo not drawn) | 5.60 | –
114 | COc1ccc(OCCCN2CCCC(C)C2)cc1 (stereo not drawn) | 4.90 | –
115 | Cc1ccc(CN(C)C2CCN(C)CC2)s1 | 4.99 | –
116 | CCOc1ccc(C2=CSC3=NCCN23)cc1 | – | 13.7 µM (inactive)
117 | O=S(=O)(c1ccc(F)cc1)n1cccc1 | – | 0.684 µM (inactive)
118 | CN(CC(O)COc1ccc(F)cc1)C1CCCCC1 (stereo not drawn) | 4.95 | –
